From the NIST ThermoML archive (doi:10.1016/j.tca.2006.03.011)
± gives the expanded uncertainty stated by the source.

Tests used:
[1] = DTA; for Normal melting temperature: Crystal 1
[2] = Molar enthalpy of transition or fusion; details: DSC

Normal melting temperature [1] | Molar enthalpy of transition or fusion ([2]; Crystal 1) | Triple point temperature ([1]; Crystal 2) | Triple point temperature ([1]; Crystal 3) | Molar enthalpy of transition or fusion ([2]; Crystal 2) | Molar enthalpy of transition or fusion ([2]; Crystal 3) | Compound
38.5 ± 0.71 °C | 16.5 ± 0.43 kcal/mol |  |  |  |  | CCCCCCCCCCCCCCCCCCCC [eicosane]
77.04 ± 0.71 °C | 19.5 ± 0.502 kcal/mol | 348.28 ± 0.71 K | 347.33 ± 0.71 K | 5.91 ± 0.172 kcal/mol | 2.8 ± 0.0932 kcal/mol | CCCCCCCCCCCCCCCCCCCCCCCCCCCCCCCCCCCC [hexatriacontane]
81.54 ± 0.71 °C | 4.67 ± 0.141 kcal/mol |  |  |  |  | c1ccc2ccccc2c1 [naphthalene]
52.77 ± 0.71 °C | 13.3 ± 0.359 kcal/mol | 312.9 ± 0.71 K | 309 ± 0.71 K | 0.256 ± 0.0311 kcal/mol | 5.71 ± 0.167 kcal/mol | CCCCCCCCCCCCCCCCCCCCCCCCC [pentacosane]
